Results on 9 molecules are retold here after patent US9949968B2, “Diarylalkylamine REV-ERB antagonists and their use as medicaments” (FONDAZIONE ISTITUTO ITALIANO DI TECNOLOGIA, priority 2013, dated 2018).

The structures appear in SMILES notation. pEC50: −log10 of the molar value. Counter-ions that a name gives are not always drawn.

As a reminder, the GI50 is the concentration that inhibits growth by half. As a reminder, the pEC50 is the EC50 on a negative log10 scale, so that one unit is a factor of ten.

Data set [1] concerns tumorigenic breast cancer cells BT-474. In words: Growth inhibition assay (CyQUANT Cell Proliferation Assay) in BT-474 cells. The class given is cell-based. To be noted: Homo sapiens; for GI50: 48 h, CyQUANT, read-out: Cell Growth Inibition GI50; for Emax: reduction of cells after 48 h at saturating dose, read-out: Cell Growth Inibition GImax. The text has this:
Given that REV-ERB target genes include several metabolic regulators, such as Pgc-1α and Nampt, it was decided to test the cell proliferation with a method that is independent from the metabolic state of the cell.
The CyQUANT® Cell Proliferation Assay Kit (Invitrogen) was used, an assay that has a linear detection range extending from 50 or fewer to at least 250,000 cells.
Frozen cells are simply thawed and lysed by addition of a buffer containing the CyQUANT®.
For the assay, tumorigenic breast cancer cells BT-474 cells were seeded at 2500 cells per well in a 96-well plate and incubated over-night at 37° C. Then, fresh medium containing different concentration of the compounds or vehicle (DMSO) was added and cells were growth 48 h at 37° C. Finally, cells were frozen at […] and then processed according to the manufacture instructions. A minimum of triplicate data for each dose was used for the analysis.
Data were collected and analyzed with Prism 5 software to calculate the growth inhibition curve.
In particular, values obtained from the DMSO treated cells was set at 100% of growth. Data from treatment of cells with serial dilutions of the compounds were normalized versus the DMSO group and fitted using a four-parameter dose-response curve.
GI50 was calculated as the concentration of compound that gives a response half way between bottom and top plateaus of the fitted curve.
The bottom plateaus of the fitted curve was used to calculate the Growth Inhibition max (GImax), defined as the percentage of the reduction of cells after 48 h upon a saturating dose of compound.
(§1) The different compounds were tested for their ability to inhibit the growth of the tumorigenic breast cancer cells BT-474 and for their antagonistic activity toward REV-ERB transcriptional repression, as described in the biological method section.
For the cell growth inhibition (GI) the growth inhibition 50 (GI50) and the growth inhibition max (GImax) are reported. […] The bottom plateaus of the curve was used to calculate the Growth Inhibition max (GImax), defined as the percentage of the reduction of cells after 48 h upon a saturating dose of the administered compound. Compounds with a GI50<100 μM were also tested for their antagonistic activity toward REV-ERB. For these compounds, the EC50 value is provided, calculated as the concentration of compound that gives a response half between the bottom (expression of the reporter in absence of compound) and the top (expression of the reporter at saturating doses of compound) plateaus of the fitted curves (see biological method section for a description of the reported assay). n.d.=not determined; n.t.=not tested.

The subject of a further data set is REV-ERB. In words: Luciferase-based assay of REV-ERB mediated transcriptional regulation (RevRE/SV40-CLuc reporter in HEK-293 cells). The class given is cell-based. Conditions: HEK-293 cells transfected with RevRE reporter and REV-ERBα and/or β; read 24 h post-transfection; read-out: REV-ERB antagonism EC50.
Description: Luciferase-Base Assay to Assess the Activity of the Compounds on REV-ERB Mediated Transcriptional Regulation
In order to assess the effect of the compounds of the invention on REV-ERB activity the inventors exploited the ability of REV-ERB to repress gene transcription of a specific DNA cis-element. In fact, the DNA binding domain (DBD) of REV-ERB recognizes specific DNA sequences (called RevREs=Rev-erb Responsive Elements) which contains an AGGTCA motif linked in 5′ to an A/T rich sequence harboring the following consensus: A/T A A/T N T (Harding et al., Mol Cell Biol., 1993; 13:3113).
Therefore, two repetitions of the RevRE consensus AGAATGTAGGTCA (SEQ ID NO: 13) upstream a SV40 promoter driving the expression of a reporter gene were cloned. As reported, the luciferase enzyme from the ostracod Cypridina noctiluca was adopted. […] Cypridina luciferase (CLuc) is secreted from cells by virtue of its natural signal peptide and its luminescence can be measured from the supernatant of transfected cells. Therefore, cell lysis is not necessary. Secreted CLuc is a very stable protein. Because of this property, the activity measured from the supernatant reflects the amount of protein accumulated up to the time of sampling. Multiple samples can therefore be obtained from the same transfected cells, allowing an easy set-up of time-course experiments. In addition, the direct use of the supernatant makes the system easily prone to automation for High Throughput Screening.
In order to normalize the experiment for the transfection efficiency, it was used a plasmid containing a SV40 promoter driving the expression of a secreted form of human alkaline phosphatase (SEAP), which enzymatic activity in the supernatant can be measured with chemiluminescence substrates.
To be able to rule out false-positive, for example due to the interference of the compounds to be tested with the fluorescence and/or chemiluminescence reactions, it was used as control a mutated version of the RevRE (GAGCCCGTAGGTCA) (SEQ ID NO: 14) that is no longer able to bind REV-ERB DBD (Harding et al., Mol Cell Biol., 1993; 13:3113).
The person skilled in the art will appreciate that an agonist will improve the ability of REV-ERB to repress the transcription, reducing the luminescence signal, while an antagonist will produce the opposite effect.
For the assay, HEK-293 cells were transfected with the reporter vectors and a plasmid expressing the REV-ERBα and/or β protein. After 6 h from transfection, the medium was replaced with fresh medium containing different doses of the compounds or vehicle (DMSO). After 24 h post-transfection, the supernatant was analyzed for the secreted luciferase and AP activity according to the manufacture instruction. Data normalized as fold activation versus vehicle (DMSO) were fitted using a four-parameter dose-response curve to calculate the EC50 of the different compounds.
as §1
For the cell growth inhibition (GI) the growth inhibition 50 (GI50) and the growth inhibition max (GImax) are reported. […] The bottom plateaus of the curve was used to calculate the Growth Inhibition max (GImax), defined as the percentage of the reduction of cells after 48 h upon a saturating dose of the administered compound. Compounds with a GI50<100 μM were also tested for their antagonistic activity toward REV-ERB. […]

For the next data set, the target named is T1, LXRα (Homo sapiens, UniProt Q13133).
T1 sequence (Q13133 1-447): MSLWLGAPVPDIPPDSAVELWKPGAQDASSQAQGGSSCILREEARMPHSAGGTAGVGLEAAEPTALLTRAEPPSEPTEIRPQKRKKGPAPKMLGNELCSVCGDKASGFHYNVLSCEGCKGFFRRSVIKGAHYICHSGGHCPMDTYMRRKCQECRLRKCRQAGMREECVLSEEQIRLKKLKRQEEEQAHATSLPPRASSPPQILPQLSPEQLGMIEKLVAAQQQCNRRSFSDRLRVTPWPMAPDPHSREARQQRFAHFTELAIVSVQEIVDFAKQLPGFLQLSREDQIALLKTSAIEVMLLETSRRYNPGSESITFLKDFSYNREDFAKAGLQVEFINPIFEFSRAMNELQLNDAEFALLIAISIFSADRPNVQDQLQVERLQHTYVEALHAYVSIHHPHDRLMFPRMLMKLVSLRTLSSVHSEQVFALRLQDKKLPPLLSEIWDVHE
To be noted: Trump et al., J. Med. Chem., 2013; cited from earlier work.

For data set [2] the following is noted: cited from earlier work; for pharmacokinetic properties: literature; for metabolic clearance: in vivo, Solt et al., Nature, 2012.
For the next data set, the target named is T2, REV-ERBα (Homo sapiens, UniProt P20393).
T2 sequence (P20393 284-614 limits assumed): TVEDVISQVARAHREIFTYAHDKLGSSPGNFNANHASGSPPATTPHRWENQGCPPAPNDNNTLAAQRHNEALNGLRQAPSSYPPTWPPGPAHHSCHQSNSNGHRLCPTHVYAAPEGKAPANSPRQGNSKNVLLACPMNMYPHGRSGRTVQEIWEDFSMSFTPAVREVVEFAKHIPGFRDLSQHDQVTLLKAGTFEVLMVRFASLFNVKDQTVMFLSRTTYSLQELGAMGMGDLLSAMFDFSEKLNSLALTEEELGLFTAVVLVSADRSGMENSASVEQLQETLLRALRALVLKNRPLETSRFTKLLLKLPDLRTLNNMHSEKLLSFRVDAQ
Conditions: literature; cited from earlier work.

Turning to `CN1CCN(Cc2cc(CNC3(c4cccs4)CCCC3)ccc2O)CC1` [Example 25, 2-[(4-Methylpiperazin-1-yl)methyl]-4-[[[1-(2-thienyl)cyclopentyl]amino]methyl]phenol trihydrochloride], in data set [1], the concentration for 50% growth inhibition (GI50) worked out at 18 µM and the Emax is 70%. In the data set on REV-ERB, the pEC50 is 4.54.
For `COc1cccc(C2(NCc3ccc(O)c(CN4CCN(C)CC4)c3)CCCC2)c1` [Example 27, 4-[[[1-(3-Methoxyphenyl)cyclopentyl]amino]methyl]-2-[(4-methylpiperazin-1-yl)methyl]phenol trihydrochloride] the same measures were 12 µM, 70% and 4.80.
The like results for `CN1CCC(Cc2cccc(CNC3(c4ccccc4F)CCOCC3)c2)CC1` [Example 30, 4-(2-Fluorophenyl)-N-[[3-[(1-methyl-4-piperidyl)methyl]phenyl]methyl]tetrahydropyran-4-amine dihydrochloride] were, in that order, 3 µM, 95% and 5.22.
For `CN1CCC(Cc2cccc(CNC3(c4ccc(F)cc4)CCCC3)c2)CC1` [Example 32, 1-(4-Fluorophenyl)-N-[[3-[(1-methyl-4-piperidyl)methyl]phenyl]methyl]cyclopentanamine dihydrochloride], in data set [1], the 50% growth inhibitory concentration (GI50) is 1 µM and the Emax was found to be 97%. For the same molecule, in the data set with REV-ERB, the pEC50 is 5.70.
The like results for `CN1CCN(Cc2cc(CNC3(c4ccccc4F)CCC3)ccc2O)CC1` [Example 33, 4-[[[1-(2-Fluorophenyl)cyclobutyl]amino]methyl]-2-[(4-methylpiperazin-1-yl)methyl]phenol trihydrochloride] were, in that order, 30 µM, 70% and 4.42.
Regarding `CC(C)(C)OC(=O)CN(Cc1ccc(Cl)cc1)Cc1ccc([N+](=O)[O-])s1` [GSK4112], the “activity on LXRα” value at LXRα is on record as “agonizes”. In addition, the pharmacokinetic properties result in data set [2] is reported as “poor pharmacokinetic properties”. The “effect on interaction of NCoR peptide with REV-ERBα (FRET)” value at REV-ERBα is “dose-dependently increase the interaction”.
Regarding `CCOC(=O)C1Cc2ccccc2CN1C(=O)c1ccc(SC)s1` (stereo not drawn) [SR8278], the pharmacokinetic properties entry in data set [2] is given as “poor pharmacokinetic properties”. Further, the “effect on interaction of NCoR peptide with REV-ERBα (FRET)” value on REV-ERBα is listed as “inhibit REV-ERBα LBD/NcoR interaction”.
Take `CCOC(=O)N1CCC(CN(Cc2ccc(Cl)cc2)Cc2ccc([N+](=O)[O-])s2)C1` (stereo not drawn) [SR9009]: the “times more active toward LXRα than REV-ERBs” value at LXRα was 100 times. In data set [2], the metabolic clearance result is “high metabolic clearance rates”.
Turning to `CCCCCNC(=O)N1CCC(CN(Cc2ccc(Cl)cc2)Cc2ccc([N+](=O)[O-])s2)C1` (stereo not drawn) [SR9011], at LXRα, the “times more active toward LXRα than REV-ERBs” value is 100 times. In data set [2], the metabolic clearance result is “high metabolic clearance rates”.
